In EPA's ToxValDB 9.5 (doi:10.2903/j.efsa.2010.1783):
≈ marks a conversion by molar mass, not a printed value.

Assays:
Colinus virginianus = details: acute, oral, mortality
Oryctolagus sp. = details: subchronic; duration: 90 days; oral; hematological
Oncorhynchus mykiss = details: acute; duration: 96 hours; mortality
Tagia sp. = details: acute; duration: 14 days; mortality
Daphnia magna = details: acute; duration: 48 hours; mortality
Coturnix japonica = details: reproduction developmental; duration: 20 weeks
Anas platyrhynchos = details: acute; oral; unspecified; mortality
Rattus norvegicus = details: acute; oral; mortality

`O=c1oc2ccccc2c(O)c1C(CC(O)c1ccc(-c2ccc(Br)cc2)cc1)c1ccccc1` (centres undefined) [Bromadiolone] gave an LD50 (Colinus virginianus; duration: 5 days, diet) of 8.3 mg/kg-day, an LD50 (Colinus virginianus) of 138 mg/kg and an NOAEL (Oryctolagus sp.) of 0.5 mg/kg-day. The LC50 (Oncorhynchus mykiss) was > 8 µg/mL, the LC50 (Tagia sp.) was > 4.74 mg/kg and the LC50 (Daphnia magna) was 2 µg/mL (≈ 3.79 µM). The NOEL (Coturnix japonica) was 0.011 mg/kg-day, the LD50 (Anas platyrhynchos) was 1290 mg/kg and the LD50 (Rattus norvegicus) was < 0.84 mg/kg.
